# Values quoted from earlier work, collected in publication PMC5657425 (Pediatric blood & cancer, 2016).
# Assays:
# [1] = tested on: PPTP solid tumor xenografts
# [2] = tested on: well-differentiated or dedifferentiated liposarcoma
# Rh18 xenograft = conditions: single agent
Structure (SMILES),response of the osteosarcoma panel ([1]; osteosarcoma panel),objective regressions in twenty six solid tumor models with wild-type TP53 ([1]; prior PPTP testing),adverse effect in phase 1 and 2 evaluations [2],"stable disease among 20 patients treated ([2]; phase 2, well-differentiated or dedifferentiated liposarcoma)",response of Rh18 (Rh18 xenograft)
CCOc1cc(C(C)(C)C)ccc1C1=N[C@@](C)(c2ccc(Cl)cc2)[C@@](C)(c2ccc(Cl)cc2)N1C(=O)N1CCN(CCCS(C)(=O)=O)CC1 [RG7112],no response,five,thrombocytopenia,14,
COc1cc(C(=O)O)ccc1NC(=O)[C@@H]1N[C@@H](CC(C)(C)C)[C@](C#N)(c2ccc(Cl)cc2F)[C@H]1c1cccc(Cl)c1F [RG7388],,,,,unresponsive
